Test results from patent US10227350B2 (Gilead Sciences, Inc., priority 2016, dated 2019).

target: PI3Kβ (Homo sapiens (Human), UniProt P42338); assay: TR-FRET enzymatic activity assay, PI3Kβ; type: biochemical; settings: 2× Km ATP, 2 μM PIP2, 30 minutes at 25° C., read-out: IC50-PIP-Beta
Outline: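 Purified recombinant heterodimeric PI3Kβ; PIP3 formation read by TR-FRET as competition with fluorescent tracer for GRP-1 PH domain binding. Compounds incubated 30 min at 25 °C.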

PI3Kβ, sequence (P42338 whole entry, the tested form may be a part): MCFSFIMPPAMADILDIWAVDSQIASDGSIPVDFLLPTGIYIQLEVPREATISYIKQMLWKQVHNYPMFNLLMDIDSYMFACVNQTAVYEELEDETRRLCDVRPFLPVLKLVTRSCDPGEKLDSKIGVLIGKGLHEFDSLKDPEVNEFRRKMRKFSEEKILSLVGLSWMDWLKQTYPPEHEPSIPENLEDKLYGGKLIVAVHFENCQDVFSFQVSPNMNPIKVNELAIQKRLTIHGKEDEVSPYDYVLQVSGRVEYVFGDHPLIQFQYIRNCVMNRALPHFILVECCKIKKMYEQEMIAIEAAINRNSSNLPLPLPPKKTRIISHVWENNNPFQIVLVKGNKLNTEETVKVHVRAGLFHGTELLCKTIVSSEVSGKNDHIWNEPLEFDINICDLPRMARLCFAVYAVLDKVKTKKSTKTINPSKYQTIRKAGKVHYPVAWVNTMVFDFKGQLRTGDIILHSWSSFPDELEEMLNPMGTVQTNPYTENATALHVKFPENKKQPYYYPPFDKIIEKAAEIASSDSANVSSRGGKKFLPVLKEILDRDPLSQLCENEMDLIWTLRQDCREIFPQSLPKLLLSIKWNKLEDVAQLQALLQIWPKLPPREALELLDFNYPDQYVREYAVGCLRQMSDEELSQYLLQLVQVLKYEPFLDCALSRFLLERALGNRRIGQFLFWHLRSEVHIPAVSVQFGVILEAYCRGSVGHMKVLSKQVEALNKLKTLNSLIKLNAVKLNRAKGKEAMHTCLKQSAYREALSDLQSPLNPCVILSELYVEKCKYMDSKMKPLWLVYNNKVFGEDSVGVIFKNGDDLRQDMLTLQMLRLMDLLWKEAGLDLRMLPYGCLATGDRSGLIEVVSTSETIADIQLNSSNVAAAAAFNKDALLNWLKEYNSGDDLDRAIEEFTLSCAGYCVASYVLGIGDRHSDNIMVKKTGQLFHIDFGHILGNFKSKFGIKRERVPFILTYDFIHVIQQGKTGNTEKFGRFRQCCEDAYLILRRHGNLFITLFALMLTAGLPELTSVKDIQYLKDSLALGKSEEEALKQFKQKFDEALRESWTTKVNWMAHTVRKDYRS
PI3Kβ, sequence (P27986 whole entry partner, the tested form may be a part): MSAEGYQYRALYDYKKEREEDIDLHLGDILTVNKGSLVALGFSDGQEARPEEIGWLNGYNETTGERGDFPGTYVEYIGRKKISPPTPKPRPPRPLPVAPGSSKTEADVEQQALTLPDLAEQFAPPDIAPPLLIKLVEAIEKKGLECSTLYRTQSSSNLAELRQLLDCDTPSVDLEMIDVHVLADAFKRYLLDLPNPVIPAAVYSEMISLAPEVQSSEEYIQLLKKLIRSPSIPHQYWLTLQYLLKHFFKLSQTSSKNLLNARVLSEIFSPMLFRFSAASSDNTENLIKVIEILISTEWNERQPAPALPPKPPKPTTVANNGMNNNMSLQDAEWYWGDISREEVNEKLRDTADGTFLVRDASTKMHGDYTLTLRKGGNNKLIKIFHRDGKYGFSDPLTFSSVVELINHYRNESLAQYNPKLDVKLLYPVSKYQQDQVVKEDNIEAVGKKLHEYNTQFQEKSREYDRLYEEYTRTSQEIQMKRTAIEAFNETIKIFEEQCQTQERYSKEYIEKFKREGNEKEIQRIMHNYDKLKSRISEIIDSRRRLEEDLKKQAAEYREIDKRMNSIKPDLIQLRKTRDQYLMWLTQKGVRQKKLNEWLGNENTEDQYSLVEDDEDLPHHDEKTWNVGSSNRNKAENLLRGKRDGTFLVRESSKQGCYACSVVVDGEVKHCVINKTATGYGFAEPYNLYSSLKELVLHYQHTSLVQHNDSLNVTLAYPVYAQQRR

Row | Compound | IC50 [nM]
1 | Cc1nc2c(-c3nnc[nH]3)cc(-c3c(F)cnc(N)c3F)cc2n1-c1ccnc2c(F)ccc(F)c12 [Example 100, 4-[3-(5,8-difluoroquinolin-4-yl)-2-methyl-7-(4H-1,2,4-triazol-3-yl)benzimidazol-5-yl]-3,5-difluoropyridin-2-amine] | 320
2 | Cc1c(-c2cc(-c3nnc[nH]3)c3nc(C)n(-c4ccnc5c(F)ccc(F)c45)c3c2)ccnc1N [Example 101, 4-[3-(5,8-difluoroquinolin-4-yl)-2-methyl-7-(4H-1,2,4-triazol-3-yl)benzimidazol-5-yl]-3-methylpyridin-2-amine] | 2800
3 | Nc1nccc(-c2cc(-c3nnc[nH]3)c3ncn(-c4ccnc5c(F)ccc(F)c45)c3c2)c1F [Example 102, 4-[3-(5,8-difluoroquinolin-4-yl)-7-(4H-1,2,4-triazol-3-yl)benzimidazol-5-yl]-3-fluoropyridin-2-amine] | 11
4 | Cc1nc2c(-c3nnc[nH]3)cc(-c3ccnc(C#N)c3)cc2n1-c1ccnc2cc(F)cc(F)c12 [Example 143, 4-(1-(5,7-difluoroquinolin-4-yl)-2-methyl-4-(4H-1,2,4-triazol-3-yl)-1H-benzo[d]imidazol-6-yl)picolinonitrile] | 6
5 | Cc1nc2c(-c3nnc[nH]3)cc(-c3ccnc(C#N)c3)cc2n1-c1ccnc2c(F)ccc(Cl)c12 [Example 144, 4-(1-(5-chloro-8-fluoroquinolin-4-yl)-2-methyl-4-(4H-1,2,4-triazol-3-yl)-1H-benzo[d]imidazol-6-yl)picolinonitrile] | 18
6 | Cc1nc2c(-c3nnc[nH]3)cc(-c3ccnc(C#N)c3)cc2n1-c1ccnc2c(Cl)ccc(Cl)c12 [Example 145, 4-(1-(5,8-dichloroquinolin-4-yl)-2-methyl-4-(4H-1,2,4-triazol-3-yl)-1H-benzo[d]imidazol-6-yl)picolinonitrile] | 2
7 | Cc1nc2c(-c3nnc[nH]3)cc(-c3ccnc(C#N)c3)cc2n1-c1ccnc2cccc(Cl)c12 [Example 146, 4-(1-(5-chloroquinolin-4-yl)-2-methyl-4-(4H-1,2,4-triazol-3-yl)-1H-benzo[d]imidazol-6-yl)picolinonitrile] | 200
8 | Cc1nc2c(-c3nnc[nH]3)cc(-c3ccnc(C#N)c3)cc2n1-c1ccnc2cccc(F)c12 [Example 147, 4-(1-(5-fluoroquinolin-4-yl)-2-methyl-4-(4H-1,2,4-triazol-3-yl)-1H-benzo[d]imidazol-6-yl)picolinonitrile] | 4
9 | Cc1nc2c(-c3nnc[nH]3)cc(-c3ccnc(C#N)c3)cc2n1-c1ccnc2c(F)cccc12 [Example 148, 4-(1-(8-fluoroquinolin-4-yl)-2-methyl-4-(4H-1,2,4-triazol-3-yl)-1H-benzo[d]imidazol-6-yl)picolinonitrile] | 16
10 | Cc1nc2c(-c3nnc[nH]3)cc(-c3ccnc(C#N)c3)cc2n1-c1ccnc2c(Cl)cccc12 [Example 149, 4-(1-(8-chloroquinolin-4-yl)-2-methyl-4-(4H-1,2,4-triazol-3-yl)-1H-benzo[d]imidazol-6-yl)picolinonitrile] | 4
11 | Cc1nnc(-c2cc(-c3ccnc(C#N)c3)cc3c2nc(C)n3-c2ccnc3c(Cl)ccc(F)c23)[nH]1 [Example 150, 4-(1-(8-chloro-5-fluoroquinolin-4-yl)-2-methyl-4-(5-methyl-4H-1,2,4-triazol-3-yl)-1H-benzo[d]imidazol-6-yl)picolinonitrile] | 13
12 | Cc1nnc(-c2cc(-c3ccnc(C#N)c3)cc3c2nc(C)n3-c2ccnc3c(F)ccc(F)c23)[nH]1 [Example 151, 4-(1-(5,8-difluoroquinolin-4-yl)-2-methyl-4-(5-methyl-4H-1,2,4-triazol-3-yl)-1H-benzo[d]imidazol-6-yl)picolinonitrile] | 80

The next lines start with the values.

Row | IC50 [nM] | Compound
13 | 10 | Cc1nc2c(-c3nnc[nH]3)cc(-c3ccnc(C#N)n3)cc2n1-c1ccnc2c(F)ccc(F)c12 [Example 152, 4-(1-(5,8-difluoroquinolin-4-yl)-2-methyl-4-(4H-1,2,4-triazol-3-yl)-1H-benzo[d]imidazol-6-yl)pyrimidine-2-carbonitrile]
14 | 7 | Cc1nc2c(-c3nnc[nH]3)cc(-c3ccnc(C#N)c3)cc2n1-c1ccnc2c(Cl)ccc(F)c12 [Example 153, 4-(1-(8-chloro-5-fluoroquinolin-4-yl)-2-methyl-4-(4H-1,2,4-triazol-3-yl)-1H-benzo[d]imidazol-6-yl)picolinonitrile]
15 | 9 | COc1nccc(-c2cc(-c3nnc[nH]3)c3nc(C)n(-c4ccnc5c(F)ccc(F)c45)c3c2)n1 [Example 154, 5,8-difluoro-4-(6-(2-methoxypyrimidin-4-yl)-2-methyl-4-(4H-1,2,4-triazol-3-yl)-1H-benzo[d]imidazol-1-yl)quinoline]
16 | 62 | Cc1cc(-c2cc(-c3nnc[nH]3)c3nc(C)n(-c4ccnc5c(F)ccc(F)c45)c3c2)ncn1 [Example 155, 5,8-difluoro-4-(2-methyl-6-(6-methylpyrimidin-4-yl)-4-(4H-1,2,4-triazol-3-yl)-1H-benzo[d]imidazol-1-yl)quinoline]
17 | 12 | Cc1nccc(-c2cc(-c3nnc[nH]3)c3nc(C)n(-c4ccnc5c(F)ccc(F)c45)c3c2)n1 [Example 156, 5,8-difluoro-4-(2-methyl-6-(2-methylpyrimidin-4-yl)-4-(4H-1,2,4-triazol-3-yl)-1H-benzo[d]imidazol-1-yl)quinoline]
18 | 460 | Cc1nc2c(C(N)=O)cc(-c3ncnc(N)c3C#N)cc2n1-c1ccnc2c(F)ccc(F)c12 [Example 157, 6-(6-amino-5-cyanopyrimidin-4-yl)-1-(5,8-difluoroquinolin-4-yl)-2-methyl-1H-benzo[d]imidazole-4-carboxamide]
19 | 7 | Cc1nc2c(-c3nnc[nH]3)cc(-c3ccnc(Cl)c3)cc2n1-c1ccnc2c(F)ccc(F)c12 [Example 158, 4-(6-(2-chloropyridin-4-yl)-2-methyl-4-(4H-1,2,4-triazol-3-yl)-1H-benzo[d]imidazol-1-yl)-5,8-difluoroquinoline]
20 | 5 | Cc1nc2c(-c3nnc[nH]3)cc(-c3ccnc(F)c3)cc2n1-c1ccnc2c(F)ccc(F)c12 [Example 159, 5,8-difluoro-4-(6-(2-fluoropyridin-4-yl)-2-methyl-4-(4H-1,2,4-triazol-3-yl)-1H-benzo[d]imidazol-1-yl)quinoline]
21 | 7 | Cc1nc2c(-c3nnc[nH]3)cc(-c3ccnc(N)c3F)cc2n1-c1ccnc2cc(F)cc(F)c12 [Example 160, 4-(1-(5,7-difluoroquinolin-4-yl)-2-methyl-4-(4H-1,2,4-triazol-3-yl)-1H-benzo[d]imidazol-6-yl)-3-fluoropyridin-2-amine]
22 | 6 | Cc1nc2c(-c3nnc[nH]3)cc(-c3ccnc(N)c3F)cc2n1-c1ccnc2c(Cl)ccc(Cl)c12 [Example 161, 4-(1-(5,8-dichloroquinolin-4-yl)-2-methyl-4-(4H-1,2,4-triazol-3-yl)-1H-benzo[d]imidazol-6-yl)-3-fluoropyridin-2-amine]
23 | 10 | Nc1nccc(-c2cc(-c3nnc[nH]3)c3ncn(-c4cc(N5CCNCC5)nc5ccccc45)c3c2)c1F [Example 162, 3-fluoro-4-(1-(2-(piperazin-1-yl)quinolin-4-yl)-4-(4H-1,2,4-triazol-3-yl)-1H-benzo[d]imidazol-6-yl)pyridin-2-amine]
24 | 120 | Nc1nccc(-c2ccc3ncn(-c4cc(N5CCNCC5)nc5ccccc45)c3c2)c1F [Example 163, 3-fluoro-4-(1-(2-(piperazin-1-yl)quinolin-4-yl)-1H-benzo[d]imidazol-6-yl)pyridin-2-amine]
25 | 10 | Fc1nccc(-c2cc(-c3nnc[nH]3)c3ncn(-c4cc(N5CCNCC5)nc5ccccc45)c3c2)c1F [Example 164, 4-(6-(2,3-difluoropyridin-4-yl)-4-(4H-1,2,4-triazol-3-yl)-1H-benzo[d]imidazol-1-yl)-2-(piperazin-1-yl)quinoline]
26 | 480 | Fc1nccc(-c2ccc3ncn(-c4cc(N5CCNCC5)nc5ccccc45)c3c2)c1F [Example 165, 4-(6-(2,3-difluoropyridin-4-yl)-1H-benzo[d]imidazol-1-yl)-2-(piperazin-1-yl)quinoline]
27 | 70 | N#Cc1cc(-c2cc(-c3nnc[nH]3)c3ncn(-c4cc(-c5cn[nH]c5)nc5ccccc45)c3c2)ccn1 [Example 166, 4-(1-(2-(1H-pyrazol-4-yl)quinolin-4-yl)-4-(4H-1,2,4-triazol-3-yl)-1H-benzo[d]imidazol-6-yl)picolinonitrile]
28 | 10 | N#Cc1cc(-c2cc(-c3nnc[nH]3)c3ncn(-c4cc(N5CCNCC5)nc5ccccc45)c3c2)ccn1 [Example 167, 4-(1-(2-(piperazin-1-yl)quinolin-4-yl)-4-(4H-1,2,4-triazol-3-yl)-1H-benzo[d]imidazol-6-yl)picolinonitrile]
